Where two headings read alike, the source gives them in different places.
Legend:
Assay type in all cases: cell-based
[1] = tested on: Veillonella parvula KYA 10790; experiment: Antibacterial spectra, MIC; details: KYA10790
[2] = tested on: P. maltophilia GIFU 2491; experiment: Antibacterial spectra, MIC; details: Stenotrophomonas maltophilia, GIFU2491
[3] = tested on: C. perfringens KYA 13123; experiment: microbe, parasite or virus in culture; details: Clostridium perfringens, KYA13123
[4] = tested on: E. coli ATCC 10536; experiment: Antibacterial spectra, MIC; details: Escherichia coli, ATCC10536
[5] = tested on: Eubacterium lentum GAI 5242; experiment: Antibacterial spectra, MIC; details: Eggerthella lenta, GAI5242
[6] = tested on: K. pneumoniae 1-220S; experiment: Antibacterial spectra, MIC; details: Klebsiella pneumoniae, 1220S
[7] = tested on: C. ramosum; experiment: Antibacterial spectra, MIC; details: Thomasclavelia ramosa
[8] = tested on: S. pyogenes IID 692; experiment: Antibacterial spectra, MIC; details: Streptococcus pyogenes, IID692
[9] = tested on: Acinetobacter anitratus IID 876; experiment: Antibacterial spectra, MIC; details: Acinetobacter calcoaceticus, IID876
[10] = tested on: P. cepacia GIFU 518; experiment: Antibacterial spectra, MIC; details: Burkholderia cepacia, GIFU518
[11] = tested on: B. fragilis 0558; experiment: Antibacterial spectra, MIC; details: Bacteroides fragilis
[12] = tested on: Bacilus subtilis PCI 219; experiment: Antibacterial spectra, MIC; details: Bacillus subtilis, PCI219
[13] = tested on: Enterobacter cloacae IID 977; experiment: Antibacterial spectra, MIC; details: IID977
[14] = tested on: S. pneumoniae IID 552; experiment: Antibacterial spectra, MIC; details: Streptococcus pneumoniae, IID552
[15] = tested on: Citrobacter freundii IID 976; experiment: Antibacterial spectra, MIC
[16] = tested on: B. thetaiotaomicron (0661); experiment: Antibacterial spectra, MIC; details: Bacteroides thetaiotaomicron
[17] = tested on: S. aureus Smith; experiment: Antibacterial spectra, MIC; details: Staphylococcus aureus
[18] = tested on: P. mirabilis IID 994; experiment: Antibacterial spectra, MIC; details: Proteus mirabilis, IID994
[19] = tested on: Morganella morganii IID 602; experiment: Antibacterial spectra, MIC; details: IID602
[20] = tested on: Bacteroides fragilis GM 7000; experiment: Antibacterial spectra, MIC
[21] = tested on: P. aeruginosa IFO 12689; experiment: Antibacterial spectra, MIC; details: Pseudomonas aeruginosa, IFO12689
[22] = tested on: E. coli ML 4707; experiment: Antibacterial spectra, MIC; details: Escherichia coli, ML4707; 10^6 cells/ml; Gram -
Method: (§1) The antibacterial test was carried out according to the method designated by Japan Society of Chemotherapy.

[23] = tested on: E. faecalis IID 682; experiment: Antibacterial spectra, MIC; details: Enterococcus faecalis, IID682; 10^6 cells/ml; Gram +
Method: as §1

[24] = tested on: Shigella sonnei IID 969; experiment: Antibacterial spectra, MIC; details: IID969, 10^6 cells/ml, Gram -
Method: as §1

[25] = tested on: Proteus vulgaris IFO 3167; experiment: Antibacterial spectra, MIC; details: IFO3167, 10^6 cells/ml, Gram -
Method: as §1

[26] = tested on: Streptococcus pyogenes (S-8); experiment: Antibacterial spectra, MIC; details: 10^6 cells/ml, Gram +
Method: as §1

[27] = tested on: S. aureus IID 670 (Terajima); experiment: Antibacterial spectra, MIC; details: Staphylococcus aureus, IID670
[28] = tested on: B. vulgatus KYA 29327; experiment: Antibacterial spectra, MIC; details: Phocaeicola vulgatus, KYA29327
[29] = tested on: Peptostreptococcus anaerobius KYA 27337; experiment: Antibacterial spectra, MIC
[30] = tested on: B. fragilis 25285; experiment: Antibacterial spectra, MIC; details: Bacteroides fragilis
[31] = tested on: Serratia marcescens IID 618; experiment: Antibacterial spectra, MIC; details: IID618
[32] = tested on: F. varium KYA 8501; experiment: Antibacterial spectra, MIC; details: Fusobacterium varium, KYA8501
[33] = tested on: Pst. micros UPI 5464-1; experiment: Antibacterial spectra, MIC; details: Parvimonas micra, UPI54641
[34] = tested on: Staphylococcus aureus 209 P; experiment: Antibacterial spectra, MIC
[35] = tested on: S. epidermidis IID 866; experiment: Antibacterial spectra, MIC; details: Staphylococcus epidermidis, IID866
[36] = tested on: Fusobacterium mortiferum 4249; experiment: Antibacterial spectra, MIC
[37] = tested on: Alcaligenes faecalis 0114002; experiment: Antibacterial spectra, MIC
[38] = tested on: F. necrophorum S-45; experiment: Antibacterial spectra, MIC; details: Fusobacterium necrophorum, S45
[39] = tested on: P. aeruginosa IID 1210; experiment: Antibacterial spectra, MIC; details: Pseudomonas aeruginosa, IID1210; 10^6 cells/ml; Gram -; read-out: MIC
[40] = tested on: Klebsiella pneumoniae KY(GN)6445; experiment: Antibacterial spectra, MIC
[41] = tested on: Escherichia coli NIHJ JC-2; experiment: Antibacterial spectra, MIC; details: NIHJJC2
[42] = tested on: B. distasonis 8503; experiment: Antibacterial spectra, MIC; details: Parabacteroides distasonis
[43] = tested on: Peptococcus magnus KY 017; experiment: Antibacterial spectra, MIC; details: Finegoldia magna, KY017
[44] = tested on: Pseudomonas aeruginosa V-1; experiment: Antibacterial spectra, MIC; details: V1
[45] = tested on: Yersinia enterocolitica IID 981; experiment: Antibacterial spectra, MIC; details: IID981
[46] = tested on: Propionibacterium acens 11828; experiment: Antibacterial spectra, MIC
[47] = tested on: Salmonella enteritidis IID 604; experiment: Antibacterial spectra, MIC; details: Salmonella enterica
[48] = 10^6 cells/ml, Gram -, read-out: MIC
[49] = 10^6 cells/ml, Gram +, read-out: MIC

Measured: MIC

CNCC1CCN(c2c(F)cc3c(=O)c(C(=O)O)cn(C4CC4)c3c2OC)C1 (stereo not drawn) [Exp. 8, 1-cyclopropyl-6-fluoro-1,4-dihydro-8-methoxy-7-(3-methylaminomethyl-1-pyrrolidinyl)-4-oxo-3-quinolinecarboxylic acid]
0.025 µg/mL: [12] | [41]
≤ 0.05 µg/mL: [43]
0.05 µg/mL: [4] | [8] | [14] | [15]; IID976 | [17] | [18] | [22] | [23] | [24] | [25] | [26] | [27] | [34] | [35] | [40]
1.56 µg/mL: [10]; [48] | [37]; [48]
12.5 µg/mL: [39]
0.39 µg/mL: [1] | [2] | [7] | [11] | [19] | [20]; GM7000 | [30] | [33] | [36] | [38]
0.1 µg/mL: [6] | [45] | [47]
0.78 µg/mL: [44] | [46]
0.2 µg/mL: [3] | [5] | [9] | [13] | [29]; KYA27337 | [31]
3.13 µg/mL: [16] | [21] | [28] | [32] | [42]

CCNCC1CCN(c2c(F)cc3c(=O)c(C(=O)O)cn(C4CC4)c3c2OC)C1 (stereo not drawn) [Exp. 9, 1-cyclopropyl-7-(3-ethylaminomethyl-1-pyrrolidinyl)-6-fluoro-1,4-dihydro-8-methoxy-4-oxo-3-quinolinecarboxylic acid]
0.05 µg/mL: [8] | [9] | [23] | [40] | [47]
≤ 0.05 µg/mL: [3] | [29]; KYA27337 | [43]
6.25 µg/mL: [39]
0.2 µg/mL: [2] | [7] | [19] | [36] | [38]
0.78 µg/mL: [10] | [16] | [37] | [42]
0.0125 µg/mL: [17] | [27] | [34]
0.39 µg/mL: [1] | [28] | [33] | [44]
0.1 µg/mL: [5] | [6] | [11] | [13] | [20]; GM7000 | [30] | [31] | [45]
0.055 µg/mL: [15]; IID976, 10^6 cells/ml, Gram -, read-out: MIC
0.025 µg/mL: [4] | [14] | [18] | [22] | [24] | [25] | [26] | [35]
1.56 µg/mL: [21]; [48] | [32]; [48] | [46]; [49]
0.0063 µg/mL: [12] | [41]

COc1c(N2CCNCC2)c(F)c(N)c2c(=O)c(C(=O)O)cn(C3CC3)c12 [Exp. 10, 5-amino-1-cyclopropyl-6-fluoro-1,4-dihydro-8-methoxy-4-oxo-7-(1-piperazinyl)-3-quinolinecarboxylic acid]
0.05 µg/mL: [4] | [15]; IID976 | [22] | [34] | [40]
3.13 µg/mL: [3] | [11] | [20]; GM7000 | [30]
0.025 µg/mL: [12] | [24] | [41]
0.2 µg/mL: [2] | [6] | [13] | [18] | [19] | [31] | [45] | [47]
> 0.78 µg/mL: [8] | [14]
6.25 µg/mL: [16]; [48] | [42]; [48]
12.5 µg/mL: [46]; [49]
0.39 µg/mL: [1] | [23] | [26] | [28] | [33] | [44]
0.78 µg/mL: [5] | [37]
50 µg/mL: [32]; [48]
0.1 µg/mL: [9] | [17] | [25] | [27]
1.56 µg/mL: [7]; [49] | [10]; [48] | [21]; [48] | [29]; KYA27337, 10^6 cells/ml, Gram +, read-out: MIC | [36]; [48] | [38]; [48] | [39] | [43]; [49]

COc1c(N2CCC(N)C2)c(F)c(N)c2c(=O)c(C(=O)O)cn(C3CC3)c12 (stereo not drawn) [Exp. 11, 5-amino-7-(3-amino-1-pyrrolidinyl)-1-cyclopropyl-6-fluoro-1,4-dihydro-8-methoxy-4-oxo-3-quinolinecarboxylic acid]
0.1 µg/mL: [18] | [45] | [47]
0.2 µg/mL: [2] | [6] | [14] | [19] | [23] | [25] | [26] | [31]
0.05 µg/mL: [9] | [13] | [15]; IID976 | [27] | [40]
0.39 µg/mL: [5] | [8]
1.56 µg/mL: [7]; [49] | [10]; [48] | [11]; [48] | [16]; [48] | [20]; GM7000, 10^6 cells/ml, Gram -, read-out: MIC | [21]; [48] | [30]; [48] | [38]; [48] | [39]
0.025 µg/mL: [4] | [17] | [22] | [24] | [34] | [41]
0.78 µg/mL: [1] | [3] | [28] | [29]; KYA27337 | [33] | [37] | [43] | [44]
6.25 µg/mL: [46]; [49]
3.13 µg/mL: [36]
0.0125 µg/mL: [12]
12.5 µg/mL: [42]; [48]
25 µg/mL: [32]; [48]
